The compounds below were run against T1, MerTK (Homo sapiens, UniProt Q12866) (assay: MerTk degradation in Jurkat cells (Western blot)). Conditions: Jurkat, 4 h, 0.001-1 μM, 4 hour-incubation at 37° C., read-out: Jurkat Max % MerTK Degradation.
T1 construct: endogenous in cells; host or cells: Jurkat cells
T1 sequence (Q12866 21-999): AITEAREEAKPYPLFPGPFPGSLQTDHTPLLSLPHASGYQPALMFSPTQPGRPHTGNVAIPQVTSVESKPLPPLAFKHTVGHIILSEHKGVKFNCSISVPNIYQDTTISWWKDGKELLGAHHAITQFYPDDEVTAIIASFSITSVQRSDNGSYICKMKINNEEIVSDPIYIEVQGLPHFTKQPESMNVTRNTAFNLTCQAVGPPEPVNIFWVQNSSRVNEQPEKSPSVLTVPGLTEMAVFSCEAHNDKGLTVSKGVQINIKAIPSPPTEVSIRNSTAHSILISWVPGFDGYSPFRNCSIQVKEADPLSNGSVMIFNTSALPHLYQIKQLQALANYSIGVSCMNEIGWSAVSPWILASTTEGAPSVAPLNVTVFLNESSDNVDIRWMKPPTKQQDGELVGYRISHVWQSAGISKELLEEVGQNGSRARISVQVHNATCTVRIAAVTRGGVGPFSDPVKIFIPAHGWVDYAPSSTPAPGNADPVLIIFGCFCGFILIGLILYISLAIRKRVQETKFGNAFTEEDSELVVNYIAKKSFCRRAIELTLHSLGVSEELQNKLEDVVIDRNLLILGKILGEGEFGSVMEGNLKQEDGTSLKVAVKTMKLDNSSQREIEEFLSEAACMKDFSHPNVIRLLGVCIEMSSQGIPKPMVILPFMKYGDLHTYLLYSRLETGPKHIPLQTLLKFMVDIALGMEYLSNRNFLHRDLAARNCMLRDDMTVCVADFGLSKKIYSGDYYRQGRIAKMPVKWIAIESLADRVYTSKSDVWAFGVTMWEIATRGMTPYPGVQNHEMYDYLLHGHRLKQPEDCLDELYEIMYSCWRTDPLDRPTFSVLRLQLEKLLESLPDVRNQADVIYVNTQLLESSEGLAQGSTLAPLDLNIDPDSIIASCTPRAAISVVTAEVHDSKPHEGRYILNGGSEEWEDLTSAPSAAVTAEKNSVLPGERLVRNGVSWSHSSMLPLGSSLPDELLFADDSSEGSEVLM
Assay type: cell-based
Method in brief: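 Jurkat cells treated 4 h at 37 °C with compound at 0.001-1 μM final. RIPA lysates quantified by BCA, then MerTK probed by Western blot against actin loading control with IR-dye secondaries and Odyssey imaging.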

| Dmax [%] | Structure (SMILES) |
| --- | --- |
| > 50 | Cn1c(=O)n([C@H]2CCC(=O)NC2=O)c2ccc(CCCN3CC(N4CCN(Cc5ccc(-c6cn([C@H]7CC[C@H](O)CC7)c7nc(NCCC(F)(F)F)ncc67)cc5)CC4)C3)cc21 [I-116, 3-[3-methyl-2-oxo-5-[3-(3-[4-[(4-[7-[trans-4-hydroxycyclohexyl]-2-[(3,3,3-trifluoropropyl)amino]-7H-pyrrolo[2,3-d]pyrimidin-5-yl]phenyl)methyl]piperazin-1-yl]azetidin-1-y1)propyl]-2,3-dihydro-1H-1,3-benzodiazol-1-yl]piperidine-2,6-dione] |
| > 50 | Cn1c(=O)n([C@H]2CCC(=O)NC2=O)c2ccc(CCCN3CCC(N4CCN(Cc5ccc(-c6cn([C@H]7CC[C@H](O)CC7)c7nc(NCCC(F)(F)F)ncc67)cc5)CC4)CC3)cc21 [I-117, 3-[3-methyl-2-oxo-5-[3-(4-[4-[(4-[7-[trans-4-hydroxycyclohexy1]-2-[(3,3,3-trifluoropropyl)amino]-7H-pyrrolo[2,3-d]pyrimidin-5-yl]phenyl)methyl]piperazin-1-yl]piperidin-1-y1)propyl]-2,3-dihydro-1H-1,3-benzodiazol-1-yl]piperidine-2,6-dione] |
| 20 to 50 | Cn1c(=O)n(C2CCC(=O)NC2=O)c2ccc(CCCN3CCCC(N4CCN(Cc5ccc(-c6cn([C@H]7CC[C@H](O)CC7)c7nc(NCCC(F)(F)F)ncc67)cc5)CC4)C3)cc21 (stereo partly drawn) [I-118, 3-[3-methyl-2-oxo-5-[3-(3-[4-[(4-[7-[trans-4-hydroxycyclohexy1]-2-[(3,3,3-trifluoropropyl)amino]-7H-pyrrolo[2,3-d]pyrimidin-5-yl]phenyl)methyl]piperazin-1-y1]piperidin-1-y1)propyl]-2,3-dihydro-1H-1,3-benzodiazol-1-yl]piperidine-2,6-dione; formic acid] |
| > 50 | Cn1c(=O)n([C@H]2CCC(=O)NC2=O)c2ccc(CCCCN3CC(N4CCN(Cc5ccc(-c6cn([C@H]7CC[C@H](O)CC7)c7nc(NCCC(F)(F)F)ncc67)cc5)CC4)C3)cc21 [I-119, 3-[3-methyl-2-oxo-5-[4-(3-[4-[(4-[7-[trans-4-hydroxycyclohexyl]-2-[(3,3,3-trifluoropropyl)amino]-7H-pyrrolo[2,3-d]pyrimidin-5-yl]phenyl)methyl]piperazin-1-yl]azetidin-1-yl)butyl]-2,3-dihydro-1H-1,3-benzodiazol-1-yl]piperidine-2,6-dione; bis(formic acid)] |
| > 50 | Cn1c(=O)n([C@H]2CCC(=O)NC2=O)c2ccc(CCCCN3CCC(N4CCN(Cc5ccc(-c6cn([C@H]7CC[C@H](O)CC7)c7nc(NCCC(F)(F)F)ncc67)cc5)CC4)CC3)cc21 [I-120, 3-[3-methyl-2-oxo-5-[4-(4-[4-[(4-[7-[trans-4-hydroxycyclohexyl]-2-[(3,3,3-trifluoropropyl)amino]-7H-pyrrolo[2,3-d]pyrimidin-5-yl]phenyl)methyl]piperazin-1-yl]piperidin-1-yl)butyl]-2,3-dihydro-1H-1,3-benzodiazol-1-yl]piperidine-2,6-dione] |
| > 50 | Cn1c(=O)n(C2CCC(=O)NC2=O)c2ccc(CCCCN3CCCC(N4CCN(Cc5ccc(-c6cn([C@H]7CC[C@H](O)CC7)c7nc(NCCC(F)(F)F)ncc67)cc5)CC4)C3)cc21 (stereo partly drawn) [I-121, 3-[3-methyl-2-oxo-5-[4-(3-[4-[(4-[7-[trans-4-hydroxycyclohexyl]-2-[(3,3,3-trifluoropropyl)amino]-7H-pyrrolo[2,3-d]pyrimidin-5-yl]phenyl)methyl]piperazin-1-yl]piperidin-1-yl)butyl]-2,3-dihydro-1H-1,3-benzodiazol-1-yl]piperidine-2,6-dione] |
| > 50 | Cn1c(=O)n(C2CCC(=O)NC2=O)c2ccc(CCCN3CCC(N4CCN(Cc5ccc(-c6cn([C@H]7CC[C@H](O)CC7)c7nc(NCCC(F)(F)F)ncc67)cc5)CC4)C3)cc21 (stereo partly drawn) [I-122, 3-[3-methyl-2-oxo-5-[3-(3-[4-[(4-[7-[trans-4-hydroxycyclohexy1]-2-[(3,3,3-trifluoropropyl)amino]-7H-pyrrolo[2,3-d]pyrimidin-5-yl]phenyl)methyl]piperazin-1-y1]pyrrolidin-1-y1)propyl]-2,3-dihydro-1H-1,3-benzodiazol-1-yl]piperidine-2,6-dione; formic acid] |
| > 50 | Cn1c(=O)n(C2CCC(=O)NC2=O)c2ccc(CCCCN3CCC(N4CCN(Cc5ccc(-c6cn([C@H]7CC[C@H](O)CC7)c7nc(NCCC(F)(F)F)ncc67)cc5)CC4)C3)cc21 (stereo partly drawn) [I-123, 3-[3-methyl-2-oxo-5-[4-(3-[4-[(4-[7-[trans-4-hydroxycyclohexyl]-2-[(3,3,3-trifluoropropyl)amino]-7H-pyrrolo[2,3-d]pyrimidin-5-yl]phenyl)methyl]piperazin-1-yl]pyrrolidin-1-yl)butyl]-2,3-dihydro-1H-1,3-benzodiazol-1-yl]piperidine-2,6-dione; formic acid] |

The remaining lines, values behind:

| Structure (SMILES) | Dmax [%] |
| --- | --- |
| Cn1c(=O)n([C@H]2CCC(=O)NC2=O)c2ccc(Cn3cc(CN4CCN(Cc5ccc(-c6cn([C@H]7CC[C@H](O)CC7)c7nc(NCCC(F)(F)F)ncc67)cc5)CC4)nn3)cc21 [I-113, 3-(3-Methyl-2-oxo-5-[[4-([4-[(4-[7-[trans-4-hydroxycyclohexyl]-2-[(3,3,3-trifluoropropyl)amino]-7H-pyrrolo[2,3-d]pyrimidin-5-yl]phenyl)methyl]piperazin-1-yl]methyl)-1H-1,2,3-triazol-1-yl]methyl]-2,3-dihydro-1H-1,3-benzodiazol-1-yl)piperidine-2,6-dione] | > 50 |
| Cn1c(=O)n([C@H]2CCC(=O)NC2=O)c2ccc(CCn3cc(CN4CCN(Cc5ccc(-c6cn([C@H]7CC[C@H](O)CC7)c7nc(NCCC(F)(F)F)ncc67)cc5)CC4)nn3)cc21 [I-114, 3-(3-methyl-2-oxo-5-[12-[4-([4-1(4-[17-[trans-4-hydroxycyclohexyl]-2-[(3,3,3-trifluoropropyl)aminol-7H-pyrrolo[2,3-d]pyrimidin-5-yl]phenyl)methyl]piperazin-1-yl]methyl)-1H-1,2,3-triazol-1-yl]ethyl]-2,3-dihydro-1H-1,3-benzodiazol-1-yl)piperidine-2,6-dione] | > 50 |
| Cn1c(=O)n([C@H]2CCC(=O)NC2=O)c2ccc(CCCOCCCN3CCN(Cc4ccc(-c5cn([C@H]6CC[C@H](O)CC6)c6nc(NCCC(F)F)ncc56)cc4)CC3)cc21 [I-115, 3-[5-[3-(3-[4-[(4-[2-[(3,3-difluoropropyl)amino]-7-[(1r,4r)-4-hydroxycyclohexy1]-7H-pyrrolo[2,3-d]pyrimidin-5-yl]phenyl)methyl]piperazin-1-yl]propoxy)propyl]-3-methyl-2-oxo-2,3-dihydro-1H-1,3-benzodiazol-1-yl]piperidine-2,6-dione; formic acid] | > 50 |
| Cn1c(=O)n(C2CCC(=O)NC2=O)c2ccc(CCN3CCC(OCCN4CCN(Cc5ccc(-c6cn([C@H]7CC[C@H](O)CC7)c7nc(NCCC(F)(F)F)ncc67)cc5)CC4)C3)cc21 (stereo partly drawn) [I-124, 3-(3-methyl-2-oxo-5-[2-[3-(2-[4-[(4-[7-[trans-4-hydroxycyclohexyl]-2-[(3,3,3-trifluoropropyl)amino]-7H-pyrrolo[2,3-d]pyrimidin-5-yl]phenyl)methyl]piperazin-1-yl]ethoxy)pyrrolidin-1-yl]ethyl]-2,3-dihydro-1H-1,3-benzodiazol-1-y1)piperidine-2,6-dione; tris(formic acid)] | > 50 |
| O=C1CC[C@H](n2c3ccc(CCCOCCOCCN4CCN(Cc5ccc(-c6cn([C@H]7CC[C@H](O)CC7)c7nc(NCCC(F)(F)F)ncc67)cc5)CC4)cc3c3cccnc32)C(=O)N1 [I-125, 3-(6-[3-[2-(2-[4-[(4-[7-[trans-4-hydroxycyclohexyl]-2-[(3,3,3-trifluoropropyl)amino]-7H-pyrrolo[2,3-d]pyrimidin-5-yl]phenyl)methyl]piperazin-1-yl]ethoxy)ethoxy]propyl]-9H-pyrido[2,3-b]indol-9-y1)piperidine-2,6-dione] | > 50 |
| O=C1CC[C@H](n2c3ccccc3c3c(CCCOCCOCCN4CCN(Cc5ccc(-c6cn([C@H]7CC[C@H](O)CC7)c7nc(NCCC(F)(F)F)ncc67)cc5)CC4)ccnc32)C(=O)N1 [I-126, 3-(4-[3-[2-(2-[4-[(4-[7-[trans-4-hydroxycyclohexyl]-2-[(3,3,3-trifluoropropyl)amino]-7H-pyrrolo[2,3-d]pyrimidin-5-yl]phenyl)methyl]piperazin-1-yl]ethoxy)ethoxy]propyl]-9H-pyrido[2,3-b]indol-9-yl)piperidine-2,6-dione] | > 50 |
